Measured values: patent publication US12391737B2, “Soluble NPY2 receptor agonists” (Boehringer Ingelheim International GmbH, priority 2020, dated 2025)

Assays:
Solubility determination = conditions: for Sol6: pH 6; for Sol7: pH 7
Summary of the method: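 Shake-flask style: 10 mg/ml peptide (TFA salt), 0.1 M sodium diphosphate pH 6.4/7.0, 600 rpm, 2 h, RT; filter; dilute 1 mg/ml in 50% MeCN; RP-UPLC, 0–100% B over 2 min, 50 °C. Solubility = sample/control area ratio. Final pH recorded.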

[1] = molecular target: T1, Human Neuropeptide Y2 Receptor (Homo sapiens, UniProt P49146); experiment: Radioligand binding competition assay (RLB); conditions: Table 3, 125I-PYY(1-36) competition; read-out: Ki
T1 construct: purchased CHEMICON HTS066M
T1 sequence (P49146 1-381): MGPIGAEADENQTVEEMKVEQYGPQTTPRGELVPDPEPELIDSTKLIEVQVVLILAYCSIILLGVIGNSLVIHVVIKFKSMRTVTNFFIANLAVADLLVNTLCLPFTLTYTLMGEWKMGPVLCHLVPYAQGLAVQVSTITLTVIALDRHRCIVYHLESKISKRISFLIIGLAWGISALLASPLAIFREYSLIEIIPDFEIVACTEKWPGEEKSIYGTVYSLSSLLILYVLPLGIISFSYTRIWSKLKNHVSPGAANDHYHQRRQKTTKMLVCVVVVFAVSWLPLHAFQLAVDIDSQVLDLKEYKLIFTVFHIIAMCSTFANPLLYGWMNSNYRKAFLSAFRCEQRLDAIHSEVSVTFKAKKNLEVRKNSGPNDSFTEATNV
Summary of the method: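 Competition binding used membranes expressing the receptor (0.5 μg protein/well) in 50 mM HEPES, 5 mM MgCl2, 1 mM CaCl2, pH 7.4 with 0.2% ovalbumin, incubated 2 h at room temperature with shaking. Bound radioligand was collected by filtration onto PEI-soaked GF/C filters and counted; IC50 from nonlinear sigmoidal fits.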

Sol6 (Solubility determination) | Sol7 (Solubility determination) | Ki [1] | Structure (SMILES)
10.0 mg/mL | 10.0 mg/mL | 4.65 nM | CC(C)CC(=O)N[C@@H](C)C(=O)N1CCC[C@H]1C(=O)N[C@@H](CCC(=O)O)C(=O)N[C@@H](CCCCNC(=O)CCCCCNC(=O)CC[C@H](NC(=O)CCCCCCCCCCCCCCCCC(=O)O)C(=O)O)C(=O)N1CCC[C@H]1C(=O)N[C@@H](CCC(=O)O)C(=O)N[C@@H](CCC(=O)O)C(=O)N[C@@H](C)C(=O)N[C@@H](C)C(=O)N[C@@H](CCC(=O)O)C(=O)N1CCC[C@H]1C(=O)N[C@@H](CCC(=O)O)C(=O)N[C@@H](CCC(=O)O)C(=O)N[C@@H](CC(C)C)C(=O)N[C@@H](CCC(N)=O)C(=O)N[C@@H](CCCNC(=N)N)C(=O)N[C@@H](Cc1ccc(O)cc1)C(=O)N[C@@H](Cc1ccc(O)cc1)C(=O)N[C@H](C(=O)N[C@@H](CO)C(=O)N[C@@H](CC(C)C)C(=O)N[C@@H](CCCNC(=N)N)C(=O)N[C@@H](Cc1c[nH]cn1)C(=O)N[C@@H](Cc1ccc(O)cc1)C(=O)N[C@@H](Cc1ccc(O)cc1)C(=O)N[C@@H](CC(N)=O)C(=O)N[C@@H](Cc1c[nH]c2ccccc12)C(=O)N[C@@H](CC(C)C)C(=O)N[C@H](C(=O)N[C@@H](CCCNC(=N)N)C(=O)N[C@@H](CCC(N)=O)C(=O)N[C@@H](CCCNC(=N)N)C(=O)N[C@@H](Cc1ccc(O)cc1)C(N)=O)[C@@H](C)O)C(C)C [Compound 4, N{alpha-4}-(3-methylbutanoyl)-N{epsilon-7}-(6-[(4S)-4-carboxy-4-(17-carboxyheptadecanamido)butanamido]hexanoyl)[4A,7K,9E,11A,13E,18Q,22V,28Y,30W,31L]-hPYY(4-36)]
9.7 mg/mL | 9.7 mg/mL | 22.4 nM | CC(C)CC(=O)N[C@@H](C)C(=O)N1CCC[C@H]1C(=O)N[C@@H](CCC(=O)O)C(=O)N[C@@H](CCCCNC(=O)CCCCCNC(=O)CC[C@H](NC(=O)CCCCCCCCCCCCCCCCC(=O)O)C(=O)O)C(=O)N1CCC[C@H]1C(=O)N[C@@H](CCC(=O)O)C(=O)N[C@@H](CCC(=O)O)C(=O)N[C@@H](CC(=O)O)C(=O)N[C@@H](C)C(=O)N[C@H](C(=O)N1CCC[C@H]1C(=O)N[C@@H](CCC(=O)O)C(=O)N[C@@H](CCC(=O)O)C(=O)N[C@@H](CC(C)C)C(=O)N[C@@H](CCC(N)=O)C(=O)N[C@@H](CCCNC(=N)N)C(=O)N[C@@H](Cc1ccc(O)cc1)C(=O)N[C@@H](Cc1ccc(O)cc1)C(=O)N[C@H](C(=O)N1CCC[C@H]1C(=O)N[C@@H](CC(C)C)C(=O)N[C@@H](CCCNC(=N)N)C(=O)N[C@@H](Cc1c[nH]cn1)C(=O)N[C@@H](Cc1ccc(O)cc1)C(=O)N[C@@H](Cc1ccc(O)cc1)C(=O)N[C@@H](CC(N)=O)C(=O)N[C@@H](Cc1c[nH]c2ccccc12)C(=O)N[C@@H](CC(C)C)C(=O)N[C@H](C(=O)N[C@@H](CCCNC(=N)N)C(=O)N[C@@H](CCC(N)=O)C(=O)N[C@@H](CCCNC(=N)N)C(=O)N[C@@H](Cc1ccc(O)cc1)C(N)=O)[C@@H](C)O)C(C)C)[C@@H](C)O [Compound 87, N{alpha-4}-(3-methylbutanoyl)-N{epsilon-7}-(6-[(4S)-4-carboxy-4-(17-carboxyheptadecanamido)butanamido]hexanoyl)-[4A,7K,9E,13T,18Q,22V,23P,28Y,30W,31L]-hPYY(4-36)]
>10.0 mg/mL | 9.0 mg/mL | 9.73 nM | CC(C)CC(=O)N[C@@H](C)C(=O)N1CCC[C@H]1C(=O)N[C@@H](C)C(=O)N[C@@H](CCCCNC(=O)CCCCCNC(=O)CC[C@H](NC(=O)CCCCCCCCCCCCCCCCC(=O)O)C(=O)O)C(=O)N1CCC[C@H]1C(=O)N[C@@H](CCC(=O)O)C(=O)N[C@@H](CCC(=O)O)C(=O)N[C@@H](CC(=O)O)C(=O)N[C@@H](C)C(=O)N[C@@H](CO)C(=O)N1CCC[C@H]1C(=O)N[C@@H](CCC(=O)O)C(=O)N[C@@H](CCC(=O)O)C(=O)N[C@@H](CC(C)C)C(=O)N[C@@H](CCC(N)=O)C(=O)N[C@@H](CCCNC(=N)N)C(=O)N[C@@H](Cc1ccc(O)cc1)C(=O)N[C@@H](Cc1ccc(O)cc1)C(=O)N[C@H](C(=O)N[C@@H](CO)C(=O)N[C@@H](CC(C)C)C(=O)N[C@@H](CCCNC(=N)N)C(=O)N[C@@H](Cc1c[nH]cn1)C(=O)N[C@@H](Cc1ccc(O)cc1)C(=O)N[C@@H](CCC(N)=O)C(=O)N[C@@H](CC(N)=O)C(=O)N[C@@H](Cc1c[nH]c2ccccc12)C(=O)N[C@@H](CC(C)C)C(=O)N[C@H](C(=O)N[C@@H](CCCNC(=N)N)C(=O)N[C@@H](CCC(N)=O)C(=O)N[C@@H](CCCNC(=N)N)C(=O)N[C@@H](Cc1ccc(O)cc1)C(N)=O)[C@@H](C)O)C(C)C [Compound 77, N{alpha-4}-(3-methylbutanoyl)-N{epsilon-7}-(6-[(4S)-4-carboxy-4-(17-carboxyheptadecanamido)butanamido]hexanoyl)-[4A,6A,7K,9E,18Q,22V,28Q,30W,31L]-hPYY(4-36)]
11.0 mg/mL | 11.0 mg/mL | 5.13 nM | CC(C)CC(=O)N[C@@H](C)C(=O)N1CCC[C@H]1C(=O)N[C@@H](CCC(=O)O)C(=O)N[C@@H](CCCCNC(=O)CCCCCNC(=O)CC[C@H](NC(=O)CCCCCCCCCCCCCCCCC(=O)O)C(=O)O)C(=O)N1CCC[C@H]1C(=O)N[C@@H](CCC(=O)O)C(=O)N[C@@H](CCC(=O)O)C(=O)N[C@@H](CC(=O)O)C(=O)N[C@@H](C)C(=O)N[C@@H](CCC(=O)O)C(=O)N1CCC[C@H]1C(=O)N[C@@H](CCC(=O)O)C(=O)N[C@@H](CCC(=O)O)C(=O)N[C@H](C(=O)N[C@@H](CCC(N)=O)C(=O)N[C@@H](CCCNC(=N)N)C(=O)N[C@@H](Cc1ccc(O)cc1)C(=O)N[C@@H](Cc1ccc(O)cc1)C(=O)N[C@H](C(=O)N[C@@H](CO)C(=O)N[C@@H](CC(C)C)C(=O)N[C@@H](CCCNC(=N)N)C(=O)N[C@@H](Cc1c[nH]cn1)C(=O)N[C@@H](Cc1ccc(O)cc1)C(=O)N[C@@H](Cc1ccc(O)cc1)C(=O)N[C@@H](CC(N)=O)C(=O)N[C@@H](Cc1c[nH]c2ccccc12)C(=O)N[C@@H](CC(C)C)C(=O)N[C@H](C(=O)N[C@@H](CCCNC(=N)N)C(=O)N[C@@H](CCC(N)=O)C(=O)N[C@@H](CCCNC(=N)N)C(=O)N[C@@H](Cc1ccc(O)cc1)C(N)=O)[C@@H](C)O)C(C)C)[C@@H](C)O [Compound 107, N{alpha-4}-(3-methylbutanoyl)-N{epsilon-7}-(6-[(4S)-4-carboxy-4-(17-carboxyheptadecanamido)butanamido]hexanoyl)-[4A,7K,9E,13E,17T,18Q,22V,28Y,30W,31L]-hPYY(4-36)]
9.1 mg/mL | 8.9 mg/mL | 1.45 nM | CC(C)CC(=O)N[C@@H](C)C(=O)N1CCC[C@H]1C(=O)N[C@@H](CCC(=O)O)C(=O)N[C@@H](CCCCNC(=O)CCCCCNC(=O)CC[C@H](NC(=O)CCCCCCCCCCCCCCCCC(=O)O)C(=O)O)C(=O)N1CCC[C@H]1C(=O)N[C@@H](CCC(=O)O)C(=O)N[C@@H](C)C(=O)N[C@@H](CC(=O)O)C(=O)N[C@@H](C)C(=O)N[C@@H](CO)C(=O)N1CCC[C@H]1C(=O)N[C@@H](CCC(=O)O)C(=O)N[C@@H](CCC(=O)O)C(=O)N[C@@H](CC(C)C)C(=O)N[C@@H](CCC(N)=O)C(=O)N[C@@H](CCCNC(=N)N)C(=O)N[C@@H](Cc1ccc(O)cc1)C(=O)N[C@@H](Cc1ccc(O)cc1)C(=O)N[C@H](C(=O)N[C@@H](CCC(N)=O)C(=O)N[C@@H](CC(C)C)C(=O)N[C@@H](CCCNC(=N)N)C(=O)N[C@@H](Cc1c[nH]cn1)C(=O)N[C@@H](Cc1ccc(O)cc1)C(=O)N[C@@H](Cc1ccc(O)cc1)C(=O)N[C@@H](CC(N)=O)C(=O)N[C@@H](Cc1c[nH]c2ccccc12)C(=O)N[C@@H](CC(C)C)C(=O)N[C@H](C(=O)N[C@@H](CCCNC(=N)N)C(=O)N[C@@H](CCC(N)=O)C(=O)N[C@@H](CCCNC(=N)N)C(=O)N[C@@H](Cc1ccc(O)cc1)C(N)=O)[C@@H](C)O)C(C)C [Compound 121, N{alpha-4}-(3-methylbutanoyl)-N{epsilon-7}-(6-[(4S)-4-carboxy-4-(17-carboxyheptadecanamido)butanamido]hexanoyl)-[4A,7K,9E,10A,18Q,22V,23Q,28Y,30W,31L]-hPYY(4-36)]
9.5 mg/mL | 9.8 mg/mL | 5.46 nM | CC(C)CC(=O)N[C@@H](C)C(=O)N1CCC[C@H]1C(=O)N[C@@H](CCC(=O)O)C(=O)N[C@@H](CCCCNC(=O)CCCCCNC(=O)CC[C@H](NC(=O)CCCCCCCCCCCCCCCCC(=O)O)C(=O)O)C(=O)N1CCC[C@H]1C(=O)N[C@@H](CCC(=O)O)C(=O)N[C@@H](CCC(=O)O)C(=O)N[C@@H](CC(=O)O)C(=O)N[C@@H](C)C(=O)N[C@H](C(=O)N1CCC[C@H]1C(=O)N[C@@H](CCC(=O)O)C(=O)N[C@@H](CCC(=O)O)C(=O)N[C@@H](CC(C)C)C(=O)N[C@@H](CCC(N)=O)C(=O)N[C@@H](CCCNC(=N)N)C(=O)N[C@@H](Cc1ccc(O)cc1)C(=O)N[C@@H](Cc1ccc(O)cc1)C(=O)N[C@H](C(=O)N[C@@H](CO)C(=O)N[C@@H](CC(C)C)C(=O)N[C@@H](CCCNC(=N)N)C(=O)N[C@@H](Cc1c[nH]cn1)C(=O)N[C@@H](Cc1ccc(O)cc1)C(=O)N[C@@H](Cc1ccc(O)cc1)C(=O)N[C@@H](CC(N)=O)C(=O)N[C@@H](Cc1c[nH]c2ccccc12)C(=O)N[C@@H](CC(C)C)C(=O)N[C@@H](CCC(N)=O)C(=O)N[C@@H](CCCNC(=N)N)C(=O)N[C@@H](CCC(N)=O)C(=O)N[C@@H](CCCNC(=N)N)C(=O)N[C@@H](Cc1ccc(O)cc1)C(N)=O)C(C)C)[C@@H](C)O [Compound 188, N{alpha-4}-(3-methylbutanoyl)-N{epsilon-7}-(6-[(4S)-4-carboxy-4-(17-carboxyheptadecanamido)butanamido]hexanoyl)-[4A,7K,9E,13T,18Q,22V,28Y,30W,31L,32Q]-hPYY(4-36)]
